Measurements taken from publication PMC12830207, “Targeting the protein–protein interaction between the CDC37 cochaperone and client kinases by an allosteric RAF dimer breaker” (The Journal of Biological Chemistry, 2025).
Entries after “also recorded” stand apart in the source; their conditions may differ.

Target: BRAF kinase domain
Experiment: Hydrogen–deuterium exchange MS
Type: binding, human
Conditions: BRAF^KD 10 μM, braftide 30 μM, pH 7.4, 20 s to 4.5 h, duplicate HDX–MS
Method: The 6XHIS-BRAF KD (residues 442–723, supplementary information 1) was purified as previously reported ([39]) with the human sequence expressed in Escherichia coli. The KD contains 16 solubilizing mutations (I543A, I544S, I551K, Q562R, L588N, K630S, F667E, Y673S, A688R, L706S, Q709R, S713E, L716E, S720E, P722S, and K723G), which were determined to preserve kinase activity and increase protein expression in E. coli. Mutations of the 16 residues are not involved in MEK1 interactions ([40], [41]). […] Protein induction was induced by 1 mM IPTG, 16 °C in a shaking incubator, 200 RPM. The pellet was lysed in a buffer containing 50 mM Hepes (pH 7.4), 250 mM NaCl, 50 mM KCl, 10 mM imidazole, 10 mM β-mercaptoethanol, 10% glycerol, and 1X protease inhibitor (Roche) under sonication. […] Protein fractions were analyzed on SDS-PAGE, pooled, and flash frozen for analytical use.
The exchange times varied from 20 s to 4.5 h. […] Peptides were identified through MS/MS analysis of nondeuterated samples, with data analyzed using SEQUEST (Thermo Proteome Discoverer) against a database containing sequences of BRAF^KD, braftide, pepsin, potential contaminants, and decoy proteins. Deuterated samples were analyzed using ExMS2 software (developed by Englander Lab at University of Pennsylvania).

GRKKRRQRRRPQ-miniPEG-TRHVNILLFM [Braftide]
braftide binding region on BRAF KD / change in deuterium uptake: slows deuterium incorporation compared to apo BRAF^KD; also recorded: essentially no change except in the dimer interface region
braftide binding region on BRAF KD / change in deuterium uptake (listed as braftide): spanning amino acids 496 to 515
